≈ marks a conversion by molar mass, not a printed value. Like-named read-outs stand apart in the source and are kept apart here.
Legend:
Assay in all cases: CellTiter-Glo in vitro cell proliferation assay, Example 8
[1] = system: A2780 cells; assay type: cell-based, Human; details: Homo sapiens, Example 24, A2780, Ovarian
Procedure, shortened: (§1)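 Growth was assessed on cells given 24 h to settle at 37 °C, then incubated 72 h with compound (0.0075–100 μM, DMSO carrier). A room-temperature, 60 min CellTiter-Glo step preceded luminescence measurement.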

[2] = system: H1975 (EGFR mut) cells; assay type: cell-based, Human; details: Homo sapiens, NCI-H1975, Example 24, Non Small Cell Lung
Procedure, shortened: as §1

[3] = system: MDA-MB-468 cells; assay type: cell-based, Human; details: Homo sapiens, Example 24, MDA-MB-468, Triple Negative Breast
Procedure, shortened: as §1

[4] = system: DOHH-2 cells; assay type: cell-based, Human; details: Homo sapiens, Example 24, DOHH-2, Diffuse Large B-Cell Lymphoma
Procedure, shortened: as §1

[5] = system: JIM1 cells; assay type: cell-based, Human; details: Example 24, JIM1, human myeloma
Procedure, shortened: as §1

[6] = system: HCC70 cells; assay type: cell-based, Human; details: Homo sapiens, Example 24, HCC70, Triple Negative Breast
Procedure, shortened: as §1

[7] = system: MM.1s cells; assay type: cell-based, Human; details: MM1.S, Example 24, MM.1S, human myeloma
Procedure, shortened: as §1

[8] = system: A2780CP cells; assay type: cell-based, Human; details: Homo sapiens, A2780C/P, Example 24, Ovarian
Procedure, shortened: as §1

[9] = system: ASPC-1 cells; assay type: cell-based, Human; details: Homo sapiens, ASPC1, Example 24, ASPC-1, Pancreatic
Procedure, shortened: as §1

[10] = system: L363 cells; assay type: cell-based, Human; details: L-363, Example 24, L363, human myeloma
Procedure, shortened: as §1

[11] = system: H929 cells; assay type: cell-based, Human; details: NCI-H929, Example 24, H929, human myeloma
Procedure, shortened: as §1

[12] = system: H1650 (EGFR mut) cells; assay type: cell-based, Human; details: Homo sapiens, NCI-H1650, Example 24, Non Small Cell Lung
Procedure, shortened: as §1

[13] = system: KHM-1B cells; assay type: cell-based, Human; details: Example 24, human myeloma
Procedure, shortened: as §1

[14] = system: MDA-MB-231 cells; assay type: cell-based, Human; details: Homo sapiens, Example 24, MDA-MB-231, Triple Negative Breast
Procedure, shortened: as §1

[15] = system: A498 cells; assay type: cell-based, Human; details: Homo sapiens, Example 24, A498, RCC
Procedure, shortened: as §1

[16] = system: HEC-1a cells; assay type: cell-based, Human; details: Homo sapiens, Example 24, Endometrial
Procedure, shortened: as §1

[17] = system: OCI-LY3 cells; assay type: cell-based, Human; details: Homo sapiens, Example 24, OCI-LY3, Diffuse Large B-Cell Lymphoma
Procedure, shortened: as §1

[18] = system: KMM-1 cells; assay type: cell-based, Human; details: Example 24, KMM-1, human myeloma
Procedure, shortened: as §1

[19] = system: SiHA cells; assay type: cell-based, Human; details: Homo sapiens, Example 24, Squamous
Procedure, shortened: as §1

[20] = system: KMS-11 cells; assay type: cell-based, Human; details: Example 24, KMS-11, human myeloma
Procedure, shortened: as §1

[21] = system: SU-DHL-6 cells; assay type: cell-based; details: Homo sapiens, Example 24, SU-DHL-6, Diffuse Large B-Cell Lymphoma
Method: (§2) In this Example, in vitro cell proliferation assays were performed using: (1) Human Myeloma tumor cell lines; (2) Human Lymphoma tumor cell lines; (3) Solid Human tumor cell lines; and (4) Parental, Lenalidomide resistant and Bortezomib resistant Jeko-1 Mantle cell Lymphoma tumor cell lines. The compounds tested were three diharmaline compounds, namely the 518B562 (or simply 562), 560, and 561 compounds. In addition, a monoharmaline product designated as 518F014 was also tested. This monoharmaline product had the following structure:
(§3) Each proliferation assay was carried out as follows. The test cells were plated in growth media using a 384-well microtiter plate at 50 μL volume. The cells were incubated for 24 hours at 37° C. in a humidified incubator. After 24 hours of incubation, the test compounds were added to the test wells in DSMO solvent, at concentrations ranging from 0.0075-100 μM. Control wells received equal volumes of DSMO, without compound. Following drugging, the cells were incubated for 72 hours at 37° C. in a humidified incubator. After this exposure, 100 μL of a 1:1 mixture of sterile water and CellTiter-Glo® reagent (Promega) was added to each well. The plates were then incubated for 60 minutes at room temperature, followed by recording the luminescence value of each well using a luminometer as a measure of cell proliferation.

[22] = system: N87 cells; assay type: cell-based; details: Homo sapiens, Example 24, N87, Gastric
Method: as §2, §3

[23] = system: SU-DHL-4 cells; assay type: cell-based; details: Homo sapiens, Example 24, SU-DHL-4, Diffuse Large B-Cell Lymphoma
Method: as §2, §3

[24] = system: RXF-393 cells; assay type: cell-based; details: Homo sapiens, Example 24, RXF-393, RCC
Method: as §2, §3

COc1ccc2c3c([nH]c2c1)C(CC(CC1=NCCc2c1[nH]c1cc(OC)ccc21)c1cccc(Oc2ccccc2)c1)=NCC3 [compound 594, diharmaline 3-phenoxybenzaldehyde]
IC50 ([1]; read-out: Mean): 2.58 mg/L (≈ 4.23 µM)
IC50 ([1]; read-out: Trial A): 2.67 mg/L (≈ 4.38 µM)
IC50 ([1]; read-out: Trial B): 2.49 mg/L (≈ 4.09 µM)
IC50 ([2]; read-out: Mean): 2.9 mg/L (≈ 4.76 µM)
IC50 ([2]; read-out: Trial A): 2.92 mg/L (≈ 4.8 µM)
IC50 ([2]; read-out: Trial B): 2.87 mg/L (≈ 4.71 µM)
IC50 ([3]; read-out: Mean): 2.79 mg/L (≈ 4.58 µM)
IC50 ([3]; read-out: Trial A): 2.9 mg/L (≈ 4.76 µM)
IC50 ([3]; read-out: Trial B): 2.68 mg/L (≈ 4.41 µM)
IC50 ([4]; read-out: Mean): 2.64 mg/L (≈ 4.34 µM)
IC50 ([4]; read-out: Trial A): 2.58 mg/L (≈ 4.23 µM)
IC50 ([4]; read-out: Trial B): 2.71 mg/L (≈ 4.45 µM)
IC50 ([5]; read-out: Mean): 7.67 mg/L (≈ 12.6 µM)
IC50 ([5]; read-out: Trial A): 7.41 mg/L (≈ 12.2 µM)
IC50 ([5]; read-out: Trial B): 7.92 mg/L (≈ 13 µM)
IC50 ([6]; read-out: Mean): 6.87 mg/L (≈ 11.3 µM)
IC50 ([6]; read-out: Trial A): 6.15 mg/L (≈ 10.1 µM)
IC50 ([6]; read-out: Trial B): 7.59 mg/L (≈ 12.5 µM)
IC50 ([7]; read-out: Mean): 2.57 mg/L (≈ 4.22 µM)
IC50 ([7]; read-out: Trial A): 2.48 mg/L (≈ 4.08 µM)
IC50 ([7]; read-out: Trial B): 2.66 mg/L (≈ 4.36 µM)
IC50 ([8]; read-out: Mean): 3.27 mg/L (≈ 5.37 µM)
IC50 ([8]; read-out: Trial A): 3.57 mg/L (≈ 5.86 µM)
IC50 ([8]; read-out: Trial B): 2.96 mg/L (≈ 4.87 µM)
IC50 ([9]; read-out: Mean): 3.47 mg/L (≈ 5.7 µM)
IC50 ([9]; read-out: Trial A): 2.94 mg/L (≈ 4.83 µM)
IC50 ([9]; read-out: Trial B): 3.99 mg/L (≈ 6.56 µM)
IC50 ([10]; read-out: Mean): 3.64 mg/L (≈ 5.98 µM)
IC50 ([10]; read-out: Trial A): 3.67 mg/L (≈ 6.03 µM)
IC50 ([10]; read-out: Trial B): 3.6 mg/L (≈ 5.92 µM)
IC50 ([11]; read-out: Mean): 5.96 mg/L (≈ 9.79 µM)
IC50 ([11]; read-out: Trial A): 6.5 mg/L (≈ 10.7 µM)
IC50 ([11]; read-out: Trial B): 5.42 mg/L (≈ 8.9 µM)
IC50 ([12]; read-out: Mean): 2.58 mg/L (≈ 4.23 µM)
IC50 ([12]; read-out: Trial A): 2.61 mg/L (≈ 4.28 µM)
IC50 ([12]; read-out: Trial B): 2.55 mg/L (≈ 4.19 µM)
IC50 ([13]; read-out: Mean): 6.65 mg/L (≈ 10.9 µM)
IC50 ([13]; read-out: Trial A): 6.48 mg/L (≈ 10.6 µM)
IC50 ([13]; read-out: Trial B): 6.81 mg/L (≈ 11.2 µM)
IC50 ([14]; read-out: Mean): 3.09 mg/L (≈ 5.08 µM)
IC50 ([14]; read-out: Trial A): 3.1 mg/L (≈ 5.09 µM)
IC50 ([14]; read-out: Trial B): 3.08 mg/L (≈ 5.07 µM)
IC50 ([15]; read-out: Mean): 4.69 mg/L (≈ 7.7 µM)
IC50 ([15]; read-out: Trial A): 4.82 mg/L (≈ 7.91 µM)
IC50 ([15]; read-out: Trial B): 4.56 mg/L (≈ 7.49 µM)
IC50 ([16]; read-out: Mean): 3.29 mg/L (≈ 5.4 µM)
IC50 ([16]; read-out: Trial A): 3.15 mg/L (≈ 5.17 µM)
IC50 ([16]; read-out: Trial B): 3.42 mg/L (≈ 5.63 µM)
IC50 ([17]; read-out: Mean): 5.7 mg/L (≈ 9.37 µM)
IC50 ([17]; read-out: Trial A): 3.87 mg/L (≈ 6.35 µM)
IC50 ([17]; read-out: Trial B): 7.54 mg/L (≈ 12.4 µM)
IC50 ([18]; read-out: Mean): 2.57 mg/L (≈ 4.22 µM)
IC50 ([18]; read-out: Trial A): 2.53 mg/L (≈ 4.15 µM)
IC50 ([18]; read-out: Trial B): 2.61 mg/L (≈ 4.28 µM)
IC50 ([19]; read-out: Mean): 8.73 mg/L (≈ 14.3 µM)
IC50 ([19]; read-out: Trial A): 8.56 mg/L (≈ 14.1 µM)
IC50 ([19]; read-out: Trial B): 8.89 mg/L (≈ 14.6 µM)
IC50 ([20]; read-out: Mean): 6.04 mg/L (≈ 9.92 µM)
IC50 ([20]; read-out: Trial A): 6.43 mg/L (≈ 10.6 µM)
IC50 ([20]; read-out: Trial B): 5.64 mg/L (≈ 9.27 µM)
IC50 ([21]; read-out: Mean): 2.36 mg/L (≈ 3.87 µM)
IC50 ([21]; read-out: Trial A): 2.48 mg/L (≈ 4.07 µM)
IC50 ([21]; read-out: Trial B): 2.23 mg/L (≈ 3.67 µM)
IC50 ([22]; read-out: Mean): 4.26 mg/L (≈ 7 µM)
IC50 ([22]; read-out: Trial A): 3.48 mg/L (≈ 5.72 µM)
IC50 ([22]; read-out: Trial B): 5.04 mg/L (≈ 8.27 µM)
IC50 ([23]; read-out: Mean): 2.73 mg/L (≈ 4.49 µM)
IC50 ([23]; read-out: Trial A): 2.77 mg/L (≈ 4.55 µM)
IC50 ([23]; read-out: Trial B): 2.7 mg/L (≈ 4.44 µM)
IC50 ([24]; read-out: Mean): 3.16 mg/L (≈ 5.19 µM)
IC50 ([24]; read-out: Trial A): 3.16 mg/L (≈ 5.19 µM)
IC50 ([24]; read-out: Trial B): 3.16 mg/L (≈ 5.19 µM)

From patent US12129265B2, “Therapeutic agents and uses thereof” (Ankh Life Sciences Limited, priority 2020, dated 2024)
